Experiments:
A549 = assay: CellTiter-Blue cell-based survival/proliferation assay, A549; settings: Homo sapiens; A549 lung tumor cell line, 48 h
Method: (§1) Cell-Based Proliferation Screening of Compounds
(§2) CellTiter-Blue cell-based survival/proliferation assay (Promega G8080) was performed on tumor cell lines. A total of 1·10^4 cells/well/50 μl were seeded in a 96-wells plate. Treatment was initiated by addition of a 2× drug solution of 1/10 serial dilutions ranging from 0 to 10 μM. Cells were grown for 48 h at 37° C. and then incubated with 10 μl/well of Promega CellTiter-Bleue reagent for 4 h at 37° C. The amount of resorufin dye formed was quantified by its fluorescence emission at 590 nm using a scanning multiwell spectrophotometer (OPTIMA, BMG labtech, France). A blank well without cells was used as a background control for the spectrophotometer.

OPM2 = assay: CellTiter-Blue cell-based survival/proliferation assay, OPM2; settings: Homo sapiens, OPM-2, Myeloma cell line OPM2, 48 h, read-out: Anti-tumoral activity (measured IC50) OPM2
Method: as §1, §2

REC1 = assay: CellTiter-Blue cell-based survival/proliferation assay, REC1; settings: Homo sapiens, Lymphoma cell line REC1, 48 h, read-out: Anti-tumoral activity (measured IC50) REC1
Method: as §1, §2

MDAMB231 = assay: CellTiter-Blue cell-based survival/proliferation assay, MDAMB231; settings: Homo sapiens, MDA-MB-231; MDAMB231 breast tumor cell line, 48 h
Method: as §1, §2

A498 = assay: CellTiter-Blue cell-based survival/proliferation assay, A498; settings: Homo sapiens; A498 kidney tumor cell line, 48 h
Method: as §1, §2

ACHN = assay: CellTiter-Blue cell-based survival/proliferation assay, ACHN; settings: Homo sapiens; ACHN kidney tumor cell line, 48 h
Method: as §1, §2

HL60 = assay: CellTiter-Blue cell-based survival/proliferation assay, HL60; settings: Homo sapiens, HL-60, Leukemia cell line HL60, 48 h, read-out: Anti-tumoral activity (measured IC50) HL60
Method: as §1, §2

HEPG2 = assay: CellTiter-Blue cell-based survival/proliferation assay, HEPG2; settings: Homo sapiens; HEPG2 liver tumor cell line, 48 h
Method: as §1, §2

AGS = assay: CellTiter-Blue cell-based survival/proliferation assay, AGS; settings: Homo sapiens; AGS stomach tumor cell line, 48 h
Method: as §1, §2

H1299 = assay: CellTiter-Blue cell-based survival/proliferation assay, H1299; settings: Homo sapiens, NCI-H1299; H1299 lung tumor cell line, 48 h
Method: as §1, §2

BT20 = assay: CellTiter-Blue cell-based survival/proliferation assay, BT20; settings: Homo sapiens, BT-20; BT20 breast tumor cell line, 48 h
Method: as §1, §2

PC3 = assay: CellTiter-Blue cell-based survival/proliferation assay, PC3; settings: Homo sapiens, PC-3; PC3 prostate tumor cell line, 48 h
Method: as §1, §2

PLCPRF5 = assay: CellTiter-Blue cell-based survival/proliferation assay, PLCPRF5; settings: Homo sapiens, PLC-PRF-5; PLC_PRF5 liver tumor cell line, 48 h
Method: as §1, §2

CALU6 = assay: CellTiter-Blue cell-based survival/proliferation assay, CALU6; settings: Homo sapiens, Calu-6; CALU6 lung tumor cell line, 48 h
Method: as §1, §2

CLS354 = assay: CellTiter-Blue cell-based survival/proliferation assay, CLS354; settings: Homo sapiens, CLS-354; CLS354_4 head & neck tumor cell line, 48 h
Method: as §1, §2

MESSA = assay: CellTiter-Blue cell-based survival/proliferation assay, MESSA; settings: Homo sapiens, MES-SA; MESSA ovary tumor cell line, 48 h
Method: as §1, §2

KARPAS299 = assay: CellTiter-Blue cell-based survival/proliferation assay, KARPAS299; settings: Homo sapiens, KARPAS-299, Lymphoma cell line KARPAS299, 48 h, read-out: Anti-tumoral activity (measured IC50) KARPAS299
Method: as §1, §2

[1] = system: panel of about 34 human tumor cell lines; assay: Cell-based proliferation screening on panel of tumor cell lines; settings: solid tumor cell line, cell line unknown, 48 h, read-out: IC50, solid tumor cell line of column 6 (last section of Table 3)
Method: Compounds of formula (I) were tested against a panel of about 34 human tumor cell lines representing 17 cancer type, namely leukemia (represented by 1 cell line), lymphoma (4 cell lines), myeloma (1 cell line), colorectal (2 cell lines), head and neck (3 cell lines), lung (3 cell lines), melanoma (2 cell lines), pancreas (2 cell lines), prostate (2 cell lines), ovary (2 cell lines) breast (2 cell lines), kidney (2 cell lines), stomach (2 cell lines), liver (2 cell lines), glioblastoma (2 cell lines), osteosarcoma (1 cell line), Ewing Sarcoma (1 cell line).
as §1, §2

DLD1 = assay: CellTiter-Blue cell-based survival/proliferation assay, DLD1; settings: Homo sapiens, DLD-1; DLD_1 colorectal tumor cell line, 48 h
Method: as §1, §2

HGC27 = assay: CellTiter-Blue cell-based survival/proliferation assay, HGC27; settings: Homo sapiens, HGC-27; HGC27 stomach tumor cell line, 48 h
Method: as §1, §2

HUT78 = assay: CellTiter-Blue cell-based survival/proliferation assay, HUT78; settings: Homo sapiens, Lymphoma cell line HUT78, 48 h, read-out: Anti-tumoral activity (measured IC50) HUT78
Method: as §1, §2

TOV112D = assay: CellTiter-Blue cell-based survival/proliferation assay, TOV112D; settings: Homo sapiens; TOV112D ovary tumor cell line, 48 h
Method: as §1, §2

HCT116 = assay: CellTiter-Blue cell-based survival/proliferation assay, HCT116; settings: Homo sapiens, HCT-116; HCT116 colorectal tumor cell line, 48 h
Method: as §1, §2

DU145 = assay: CellTiter-Blue cell-based survival/proliferation assay, DU145; settings: Homo sapiens, DU-145; DU145 prostate tumor cell line, 48 h
Method: as §1, §2

SW579 = assay: CellTiter-Blue cell-based survival/proliferation assay, SW579; settings: Homo sapiens; SW579 head & neck tumor cell line, 48 h
Method: as §1, §2

PANC1 = assay: CellTiter-Blue cell-based survival/proliferation assay, PANC1; settings: Homo sapiens, PANC-1; PANC_1 pancreas tumor cell line, 48 h
Method: as §1, §2

HEP2 = assay: CellTiter-Blue cell-based survival/proliferation assay, HEP2; settings: Homo sapiens, HEp-2; HEP2 head & neck tumor cell line, 48 h
Method: as §1, §2

BXPC3 = assay: CellTiter-Blue cell-based survival/proliferation assay, BXPC3; settings: Homo sapiens, BXPC-3; BXPC3 pancreas tumor cell line, 48 h
Method: as §1, §2

| Structure (SMILES) | IC50 (A549) [µM] | IC50 (OPM2) [µM] | IC50 (MDAMB231) [µM] | IC50 (A498) [µM] | IC50 (ACHN) [µM] | IC50 (HL60) [µM] | IC50 (HEPG2) [µM] | IC50 (AGS) [µM] | IC50 (H1299) [µM] | IC50 (BT20) [µM] | IC50 (PC3) [µM] | IC50 (PLCPRF5) [µM] | IC50 (CALU6) [µM] | IC50 (CLS354) [µM] | IC50 (MESSA) [µM] | IC50 [1] [µM] | IC50 (DLD1) [µM] | IC50 (HGC27) [µM] | IC50 (TOV112D) [µM] | IC50 (HCT116) [µM] | further results |
| --- | --- | --- | --- | --- | --- | --- | --- | --- | --- | --- | --- | --- | --- | --- | --- | --- | --- | --- | --- | --- | --- |
| CCOCc1cccc(Nc2ncc(-c3ccc(-n4cccn4)cc3)o2)c1 [Example 020, (3-Ethoxymethyl-phenyl)-[5-(4-pyrazol-1-yl-phenyl)-oxazol-2-yl]-amine] | > 1 | ≤ 0.1 | 0.1 to 0.5 | > 1 | > 1 | ≤ 0.1 | > 1 | > 1 | > 1 | > 1 | ≤ 0.1 | > 1 | > 1 | ≤ 0.1 | > 1 | ≤ 0.1 | 0.1 to 0.5 | > 1 | > 1 | > 1 | IC50 (REC1): ≤ 0.1 µM; IC50 (KARPAS299): ≤ 0.1 µM; IC50 (HUT78): ≤ 0.1 µM; IC50 (DU145): > 1 µM; IC50 (SW579): > 1 µM; IC50 (PANC1): > 1 µM; IC50 (HEP2): > 1 µM; IC50 (BXPC3): 0.5 to 1 µM |
| CCOCc1cc(C)cc(Nc2ncc(-c3ccc(-n4cccn4)cc3)o2)c1 [Example 021, (3-Ethoxymethyl-5-methyl-phenyl)-[5-(4-pyrazol-1-yl-phenyl)-oxazol-2-yl]-amine] | > 1 | 0.1 to 0.5 | > 1 | > 1 | > 1 | 0.1 to 0.5 | > 1 | > 1 | > 1 | > 1 | 0.5 to 1 | > 1 | > 1 | 0.1 to 0.5 | > 1 | 0.1 to 0.5 | 0.5 to 1 | > 1 | > 1 | > 1 | IC50 (REC1): 0.1 to 0.5 µM; IC50 (KARPAS299): 0.1 to 0.5 µM; IC50 (HUT78): 0.5 to 1 µM; IC50 (DU145): > 1 µM; IC50 (SW579): > 1 µM; IC50 (PANC1): > 1 µM; IC50 (HEP2): > 1 µM; IC50 (BXPC3): > 1 µM |
| CCOCc1cc(Nc2ncc(-c3ccc(N4CCNC4=O)cc3)o2)cc(OCCO)c1 [Example 059, 1-(4-(2-((3-(ethoxymethyl)-5-(2-hydroxyethoxy)phenyl)amino)oxazol-5-yl)phenyl)imidazolidin-2-one] | > 1 | ≤ 0.1 | > 1 | > 1 | > 1 | ≤ 0.1 | > 1 | > 1 | > 1 | > 1 | ≤ 0.1 | > 1 | > 1 | ≤ 0.1 | > 1 | ≤ 0.1 | > 1 | > 1 | ≤ 0.1 | ≤ 0.1 | IC50 (DU145): > 1 µM; IC50 (SW579): ≤ 0.1 µM; IC50 (PANC1): > 1 µM; IC50 (HEP2): ≤ 0.1 µM; IC50 (BXPC3): 0.5 to 1 µM |
| CCOCc1ccc(C)c(Nc2ncc(-c3ccc(-c4cn[nH]c4)cc3)o2)c1 [Example 060, 5-(4-(1H-pyrazol-4-yl)phenyl)-N-(5-(ethoxymethyl)-2-methylphenyl)oxazol-2-amine] | > 1 | 0.5 to 1 | > 1 | > 1 | > 1 | 0.5 to 1 | > 1 | > 1 | > 1 | > 1 | > 1 | > 1 | > 1 | > 1 | > 1 | > 1 | > 1 | > 1 | > 1 | > 1 | IC50 (DU145): > 1 µM; IC50 (SW579): > 1 µM; IC50 (PANC1): > 1 µM; IC50 (HEP2): > 1 µM; IC50 (BXPC3): > 1 µM |
| CCOCc1ccc(C)c(Nc2ncc(-c3ccc(-c4ccnn4C)cc3)o2)c1 [Example 061, N-(5-(ethoxymethyl)-2-methylphenyl)-5-(4-(1-methyl-1H-pyrazol-5-yl)phenyl)oxazol-2-amine] | > 1 | > 1 | > 1 | > 1 | > 1 | > 1 | > 1 | > 1 | > 1 | > 1 | > 1 | > 1 | > 1 | > 1 | > 1 | > 1 | > 1 | > 1 | > 1 | > 1 | IC50 (DU145): > 1 µM; IC50 (SW579): > 1 µM; IC50 (PANC1): > 1 µM; IC50 (HEP2): > 1 µM; IC50 (BXPC3): > 1 µM |
